Test results from US10501421B1, “Substituted benzimidazoles as modulators of Ras signaling” (VANDERBILT UNIVERSITY, priority 2017, dated 2019).
Where a name gives a salt, the structure may show the parent alone. Read-outs that look alike come from different tables or passages of the source.

Experiments:
[1] = target: Ras GEF SOS (Son of Sevenless) (Homo sapiens, UniProt Q07889); assay: SOS-mediated nucleotide exchange on Ras (BODIPY-GDP fluorescence); type: biochemical; conditions: SOS-mediated exchange of BODIPY-GDP for GTP on Ras
Outline: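 Exchange rates were taken from single-exponential fits of the fluorescence time course as BODIPY-GDP on Ras was replaced by GTP. Compound went in first, then GTP and SOS. Mean rates plotted against concentration gave EC50 by four-parameter dose-response fitting.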

Son of Sevenless (SOS) = target: T1, Son of Sevenless (SOS) (Homo sapiens, UniProt Q07889); assay: Binding to SOS, fluorescence polarization anisotropy (FPA) probe displacement; conditions: displacement of FITC-conjugated probe (Example 285), affinity calculated from IC50
T1 sequence (Q07889 564-1049 limits assumed): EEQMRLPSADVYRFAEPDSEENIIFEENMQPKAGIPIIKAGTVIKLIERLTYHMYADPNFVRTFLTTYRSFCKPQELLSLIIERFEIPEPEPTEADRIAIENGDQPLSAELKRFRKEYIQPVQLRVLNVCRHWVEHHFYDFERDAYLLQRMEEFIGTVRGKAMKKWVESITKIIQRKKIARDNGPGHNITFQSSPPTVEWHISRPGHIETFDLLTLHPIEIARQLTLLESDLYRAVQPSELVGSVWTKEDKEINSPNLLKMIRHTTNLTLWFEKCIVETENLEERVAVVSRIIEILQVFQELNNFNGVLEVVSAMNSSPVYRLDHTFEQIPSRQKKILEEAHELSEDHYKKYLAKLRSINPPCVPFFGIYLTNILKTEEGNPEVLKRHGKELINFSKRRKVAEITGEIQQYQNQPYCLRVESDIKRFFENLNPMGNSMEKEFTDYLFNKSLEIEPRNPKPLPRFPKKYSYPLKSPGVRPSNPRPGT
Outline: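 Test compounds were titrated against SOS pre-bound to a fluorescein-labelled probe, with anisotropy plotted versus compound concentration. Binding affinities were derived from IC50 values obtained by four-parameter dose-response fitting.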

[2] = system: H727 lung cancer cell lines (G12V K-Ras mutation); assay: Inhibition of cancer cell proliferation (CellTiter-Glo); type: cell-based; conditions: Homo sapiens, NCI-H727, 72 h, read-out: Cell proliferation activity (H727 cancer cell line proliferation IC50)
Outline: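 H727 cells (K-Ras G12V), 1000/well, plated overnight then exposed to a compound dose range for 3 days at 37 °C. Proliferation by CellTiter-Glo, normalized to DMSO; IC50 from four-parameter variable-slope fit.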

[3] = H727 cells, 3 days treatment, CellTiter-Glo

Chain of Ras GEF SOS (Son of Sevenless) (P01112 1-166 partner limits assumed, one chain of several): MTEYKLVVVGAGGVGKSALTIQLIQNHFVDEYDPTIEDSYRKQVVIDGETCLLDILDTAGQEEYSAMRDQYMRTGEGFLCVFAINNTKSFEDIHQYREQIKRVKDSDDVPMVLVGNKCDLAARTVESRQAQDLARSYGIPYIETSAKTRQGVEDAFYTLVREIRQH

Row | IC50 [2, 3] [µM] | Structure (SMILES) | EC50 [1] [µM] | Ki (Son of Sevenless (SOS)) [µM] | IC50 [2] [µM]
1 | – | Cc1cc2c(nc(N3CCNCC3)n2Cc2ccc(Cl)cc2)c(-c2ccccc2F)c1C [Example 107, 1-(4-chlorobenzyl)-4-(2-fluorophenyl)-5,6-dimethyl-2-(piperazin-1-yl)-1H-benzo[d]imidazole trifluoroacetate] | 1 to 5 | 1 to 5 | 5 to 20
2 | – | Cc1cc2c(nc(N3CCNCC3)n2Cc2ccc(F)c(Cl)c2)c(-c2ccc(CN)cc2)c1C [Example 108, (4-(1-(3-chloro-4-fluorobenzyl)-5,6-dimethyl-2-(piperazin-1-yl)-1H-benzo[d]imidazol-4-yl)phenyl)methanamine trifluoroacetate] | < 1 | 0.5 to 1 | 1 to 5
3 | 1 to 5 | Cc1cc2c(nc(N3CCNCC3)n2Cc2ccc(F)c(Cl)c2)c(-c2ccccc2C(C)C)c1C [Example 109, 1-(3-chloro-4-fluorobenzyl)-4-(2-isopropylphenyl)-5,6-dimethyl-2-(piperazin-1-yl)-1H-benzo[d]imidazole] | 1 to 5 | 0.5 to 1 | –
4 | 1 to 5 | COc1ccc(-c2c(C)c(C)cc3c2nc(N2CCNCC2)n3Cc2ccc(F)c(Cl)c2)cc1OC [Example 110, 1-(3-chloro-4-fluorobenzyl)-4-(3,4-dimethoxyphenyl)-5,6-dimethyl-2-(piperazin-1-yl)-1H-benzo[d]imidazole] | 1 to 5 | 1 to 5 | –
5 | – | Cc1cc2c(nc(NCCN)n2Cc2ccc(F)c(Cl)c2)c(-c2ccccc2)c1C [Example 111, N^1-(1-(3-chloro-4-fluorobenzyl)-5,6-dimethyl-4-phenyl-1H-benzo[d]imidazol-2-yl)ethane-1,2-diamine trifluoroacetate] | 1 to 5 | 1 to 5 | 1 to 5
6 | – | Cc1cc2c(nc(NCCN)n2Cc2ccc(F)c(Cl)c2)c(-c2ccccc2Cl)c1C [Example 113, N^1-(1-(3-chloro-4-fluorobenzyl)-4-(2-chlorophenyl)-5,6-dimethyl-1H-benzo[d]imidazol-2-yl)ethane-1,2-diamine trifluoroacetate] | 1 to 5 | < 0.5 | 1 to 5
7 | – | Cc1cc2c(nc(NCCN)n2Cc2ccc(F)c(Cl)c2)c(-c2c(C)nn(C)c2C)c1C [Example 114, N^1-(1-(3-chloro-4-fluorobenzyl)-5,6-dimethyl-4-(1,3,5-trimethyl-1H-pyrazol-4-yl)-1H-benzo[d]imidazol-2-yl)ethane-1,2-diamine trifluoroacetate] | 1 to 5 | 1 to 5 | 5 to 20
8 | – | Cc1cc(-c2ccccc2Cl)c2nc(N3CCNCC3)n(Cc3ccc(F)c(Cl)c3)c2c1 [Example 118, 1-(3-chloro-4-fluorobenzyl)-4-(2-chlorophenyl)-6-methyl-2-(piperazin-1-yl)-1H-benzo[d]imidazole trifluoroacetate] | 1 to 5 | < 0.5 | 1 to 5
9 | – | Cc1cc(-c2ccccc2F)c2nc(N3CCNCC3)n(Cc3ccc(F)c(Cl)c3)c2c1 [Example 119, 1-(3-chloro-4-fluorobenzyl)-4-(2-fluorophenyl)-6-methyl-2-(piperazin-1-yl)-1H-benzo[d]imidazole trifluoroacetate] | 1 to 5 | < 0.5 | > 20
10 | – | Cc1cc(-c2ccccc2C)c2nc(N3CCNCC3)n(Cc3ccc(F)c(Cl)c3)c2c1 [Example 120, 1-(3-chloro-4-fluorobenzyl)-6-methyl-2-(piperazin-1-yl)-4-(o-tolyl)-1H-benzo[d]imidazole trifluoroacetate] | 1 to 5 | < 0.5 | 1 to 5
11 | – | Cc1cc(CN2CCCC2)c2nc(N3CCNCC3)n(Cc3cc(C)c(F)c(C)c3)c2c1 [Example 124, 1-(4-fluoro-3,5-dimethylbenzyl)-6-methyl-2-(piperazin-1-yl)-4-(pyrrolidin-1-ylmethyl)-1H-benzo[d]imidazole trifluoroacetate] | < 1 | 1 to 5 | 1 to 5
12 | – | Cc1cc(CN2CCCCC2)c2nc(N3CCNCC3)n(Cc3cc(C)c(F)c(C)c3)c2c1 [Example 125, 1-(4-fluoro-3,5-dimethylbenzyl)-6-methyl-2-(piperazin-1-yl)-4-(piperidin-1-ylmethyl)-1H-benzo[d]imidazole trifluoroacetate] | 1 to 5 | 1 to 5 | 1 to 5
13 | – | Cc1cc(CN2CCC(O)CC2)c2nc(N3CCNCC3)n(Cc3cc(C)c(F)c(C)c3)c2c1 [Example 126, 1-((1-(4-fluoro-3,5-dimethylbenzyl)-6-methyl-2-(piperazin-1-yl)-1H-benzo[d]imidazol-4-yl)methyl)piperidin-4-ol trifluoroacetate] | 1 to 5 | 1 to 5 | 1 to 5
14 | – | Cc1cc(CN2CCOCC2)c2nc(N3CCNCC3)n(Cc3cc(C)c(F)c(C)c3)c2c1 [Example 127, 4-((1-(4-fluoro-3,5-dimethylbenzyl)-6-methyl-2-(piperazin-1-yl)-1H-benzo[d]imidazol-4-yl)methyl)morpholine trifluoroacetate] | 1 to 5 | 1 to 5 | 1 to 5
15 | – | Cc1cc(CN(C)C)c2nc(N3CCNCC3)n(Cc3cc(C)c(F)c(C)c3)c2c1 [Example 128, 1-(1-(4-fluoro-3,5-dimethylbenzyl)-6-methyl-2-(piperazin-1-yl)-1H-benzo[d]imidazol-4-yl)-N,N-dimethylmethanamine trifluoroacetate] | < 1 | 0.5 to 1 | 1 to 5
16 | – | CNCc1cc(Cl)cc2c1nc(N1CCNCC1)n2Cc1cc(C)c(F)c(C)c1 [Example 129, 1-(6-chloro-1-(4-fluoro-3,5-dimethylbenzyl)-2-(piperazin-1-yl)-1H-benzo[d]imidazol-4-yl)-N-methylmethanamine trifluoroacetate] | < 1 | < 0.5 | 1 to 5
17 | – | Cc1cc(Cn2c(N3CCNCC3)nc3c(CN4CCCC4)cc(Cl)cc32)cc(C)c1F [Example 130, 6-chloro-1-(4-fluoro-3,5-dimethylbenzyl)-2-(piperazin-1-yl)-4-(pyrrolidin-1-ylmethyl)-1H-benzo[d]imidazole trifluoroacetate] | < 1 | < 0.5 | 1 to 5
18 | – | CCCNCc1c(C)c(C)cc2c1nc(N1CCNCC1)n2Cc1cc(C)c(F)c(C)c1 [Example 132, N-((1-(4-fluoro-3,5-dimethylbenzyl)-5,6-dimethyl-2-(piperazin-1-yl)-1H-benzo[d]imidazol-4-yl)methyl)propan-1-amine trifluoroacetate] | < 1 | 1 to 5 | 1 to 5
19 | – | Cc1cc(C2NCCc3c2[nH]c2ccccc32)c2nc(N3CCNCC3)n(Cc3cc(C)c(F)c(C)c3)c2c1 (stereo not drawn) [Example 139, 1-(1-(4-fluoro-3,5-dimethylbenzyl)-6-methyl-2-(piperazin-1-yl)-1H-benzo[d]imidazol-4-yl)-2,3,4,9-tetrahydro-1H-pyrido[3,4-b]indole trifluoroacetate] | 1 to 5 | 1 to 5 | 1 to 5
20 | – | C=C[C@H](N)c1cc(Cl)cc2c1nc(NCCN)n2Cc1cc(C)c(F)c(C)c1 [Example 156, (S)—N^1-(4-(1-aminoallyl)-6-chloro-1-(4-fluoro-3,5-dimethylbenzyl)-1H-benzo[d]imidazol-2-yl)ethane-1,2-diamine trifluoroacetate] | < 1 | < 0.5 | 1 to 5
21 | – | Cc1cc(Cn2c(N3CCNCC3)nc3c([C@@H](N)c4ccccc4)cc(Cl)cc32)cc(C)c1F [Example 159, (S)-(6-chloro-1-(4-fluoro-3,5-dimethylbenzyl)-2-(piperazin-1-yl)-1H-benzo[d]imidazol-4-yl)(phenyl)methanamine trifluoroacetate] | < 1 | < 0.5 | < 1
22 | – | CC[C@H](N)c1cc(C)cc2c1nc(N1CCNCC1)n2Cc1cc(C)c(F)c(C)c1 [Example 161, (S)-1-(1-(4-fluoro-3,5-dimethylbenzyl)-6-methyl-2-(piperazin-1-yl)-1H-benzo[d]imidazol-4-yl)propan-1-amine trifluoroacetate] | < 1 | 0.5 to 1 | 1 to 5
23 | – | C=C[C@H](N)c1cc(C)cc2c1nc(N1CCNCC1)n2Cc1cc(C)c(F)c(C)c1 [Example 162, (S)-1-(1-(4-fluoro-3,5-dimethylbenzyl)-6-methyl-2-(piperazin-1-yl)-1H-benzo[d]imidazol-4-yl)prop-2-en-1-amine trifluoroacetate] | 1 to 5 | 1 to 5 | 1 to 5
